Entries after “also recorded” stand apart in the source; their conditions may differ. Ends that are not written are not given here.
Assays:
SARS-CoV-2 RBD (RBD-Fc) = SARS-CoV-2 RBD (RBD-Fc) (Severe acute respiratory syndrome coronavirus 2, UniProt P0DTC2)
[1] = system: SARS-CoV-2 strain 2019 n-CoV/USA_WA1/2020; type: cell-based
[2] = system: B.1.1.529 (Omicron) S protein RBD; type: binding, SARS-CoV-2
[3] = system: SARS-CoV-2 S protein pseudotyped virus-like particles; type: cell-based

| Substance | binding of peptide-phage to RBD (in words) (SARS-CoV-2 RBD (RBD-Fc)) | potency compared to 15033 parental (in words) [1] | EC50 of phage-displayed peptide (SARS-CoV-2 RBD (RBD-Fc)) | binding to omicron RBD (in words) [2] | improvement in 15033 neutralization efficiency (in words) [1] | neutralization potency compared to parent IgG (in words) [3] |
| --- | --- | --- | --- | --- | --- | --- |
| p96 (TAYECFQFPEWSCESE; not fully specified; cysteine pairing not given here) | no measurable interaction | no apparent improvement in potency; also recorded: decreased potency | – | – | – | – |
| p102 (ECWEWSYQLQEWSPCP; not fully specified; cysteine pairing not given here) | bound | – | 0.04 A268 nm absorbance units | equivalent binding efficiency | second best | marked improvement in neutralization potency |
| p16 (DFDFAENWMEQLKVML; not fully specified) | no measurable interaction | – | – | – | most marked improvement | marked improvement in neutralization potency |
